Results reported in PubChem BioAssay AID2060882 (Molecular Pharmacology Branch, DTP, NCI, 2025).

Test system: 898857-211-R-J1-PDC complex spheroids, growth % test/control
Assay: Anticancer human tumor 898857-211-R-J1-PDC patient-derived melanoma cell line growth inhibition [RAS]
Conditions: for IC50: curve of first compound; for viability, T/C: stronger effect = lower value; active = viability on the fitted dose curve at most 10% of control; inactive = the rest
From the text: RAS pathway inhibitors in Combinations in Complex Spheroids
A high-throughput screen of multi-cell type tumor spheroids was designed to identify active combinations of RAS pathway inhibitors and targeted small molecules. Complex spheroids include a stromal component modeled by human endothelial cells (HUVEC) and fibroblasts modeled by human mesenchymal stem cells (MSCs). The concentration ranges selected for each drug and investigational agent were based upon clinically achievable concentrations if the clinical Cmax of the agent was known.
Compounds. The drugs and investigational agents: abemaciclib (NSC768073), cobimetinib (NSC768068), divarasib (GDC6063, NSC841802), docetaxel (NSC628503), GDC-1971 (RLY-1971, NSC841576), gemcitabine (NSC613327), inavolisib (NSC800729), ipatasertib (NSC767898), KB-0742 (NSC834161), MRTX-1133 (NSC836407), osimertinib (NSC779217), RMC-4630 (NSC839698), RMC-6236 (NSC851965), RMC-6291 (NSC852671), Ro-3306 (NSC812927), sapanisertib (NSC764658), SN-38 (NSC673596), staurosporine (NSC755774), SY5609 (NSC837396), and tovorafenib (DAY101, NSC766906), were obtained from the National Cancer Institute (NCI) Developmental Therapeutics Program Chemical Repository. The FDA-approved anticancer drug set is available from the NCI Developmental Therapeutics Program. […] The stock solutions were prepared in dimethyl sulfoxide (DMSO, Sigma-Aldrich, St. Louis, MO, cat. D2650) at 800-fold the tested concentration and stored at -70 degrees C prior to their use. All drugs and investigational agents were tested over a range starting from a high concentration at or near the clinical Cmax and decreasing in half-log increments. If the clinical Cmax for an agent had not been determined, the highest concentration tested was 10 microM.
Cell Culture. All cells were maintained in an incubator at 37 degrees C and 5% CO2 with 95% humidity. The PDC lines were cultured according to standard operating procedures established by the NCI PDMR. All PDCs were thawed and cultured in Matrigel-coated flasks prepared with a working solution of 1X Ham's F-12 nutrient mix, without supplementation (Invitrogen, Waltham, MA, cat. 11765054), 100 U/mL penicillin-streptomycin (Invitrogen, cat. 15140122), and 2.5% Matrigel (Corning Inc., Corning, NY, cat. 354248) for the first three passages. The 362531-283-R-J2-PDC and 782815-120-R-J1-PDC lines were cultured in 6C/Colon 1B media, which includes advanced DMEM/F-12 (Thermo Fisher Scientific, cat. 12634028), 10 mM HEPES (Thermo Fisher Scientific, cat. 15630080), 1X GlutaMAX supplement (Thermo Fisher Scientific, cat. 35050061), 0.1 mg/mL primocin (InvivoGen, San Diego, CA, cat. ant-pm-2), 10% defined fetal bovine serum, heat inactivated (HyClone Laboratories Inc., Logan, UT, cat. SH30070.03HI), 50% L-WRN conditioned media (ATCC, cat. CRL-3276), 1.25 mM N-Acetyl-L-cysteine (Sigma-Aldrich, cat. A9165), 10 mM nicotinamide (Sigma-Aldrich, cat. N0636), 1X B-27 supplement (Thermo Fisher Scientific, cat. 17504044), 1X N-2 supplement (Thermo Fisher Scientific, cat. 17502048), 50 ng/mL human EGF (Thermo Fisher Scientific, cat. PHG0311), and 10 microM Y-27632 dihydrochloride (Tocris Bioscience, cat. 1254). The K12877-001-R-J1-PDC line was cultured in 6I media, which includes all 6C/Colon 1B media plus 10 ng/mL human FGF-10 (PeproTech, cat. 100-26), 1 ng/mL human FGF-2 (PeproTech, cat. 100-18B), 1 µM prostaglandin E2 (Tocris Bioscience, cat. 2296), […] hydrocortisone (Sigma-Aldrich, cat. H4001), and […] bovine insulin (Sigma-Aldrich, cat. I6634). The K86415-001-R-J1-PDC line was cultured in 6D media, which includes all 6C/Colon 1B media components minus the L-WRN conditioned media. The 485176-168-R4-J1-PDC was cultured in PANC media, which includes all 6C/Colon 1B media plus 100 ng/mL human FGF-10 (PeproTech, cat. 100-26), 500 nM SB-431542 (Selleckchem, cat. S1067), and 10 nM gastrin (Tocris Bioscience, cat. 3006). […]
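Note: spheroids exposed to compound for seven days before readout.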
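Throughout, for viability, T/C: 100% = DMSO vehicle control wells.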

CC(Nc1ccc2c(c1)OCCn1cc(N3C(=O)OCC3C(F)F)nc1-2)C(N)=O (configuration not stated) + C#Cc1c(F)ccc2cc(O)cc(-c3ncc4c(N5CC6CCC(C5)N6)nc(OCC56CCCN5CC(F)C6)nc4c3F)c12
> 10 µM: IC50 (second compound 0.0316 µM) | IC50 (second compound 0.1 µM) | IC50 (second compound 0.316 µM) | IC50 (second compound 1 µM) | IC50 (second compound 3.16 µM)
inactive: viability, T/C (second compound 0.0316 µM, first compound 0.0316 µM) 96.9% | viability, T/C (second compound 0.0316 µM, first compound 0.1 µM) 98.4% | viability, T/C (second compound 0.0316 µM, first compound 0.316 µM) 98.3% | viability, T/C (second compound 0.0316 µM, first compound 1 µM) 87.7% | viability, T/C (second compound 0.0316 µM, first compound 3.16 µM) 97.8% | viability, T/C (second compound 0.0316 µM, first compound 10 µM) 69.4% | viability, T/C (second compound 0.1 µM, first compound 0.0316 µM) 99.9% | viability, T/C (second compound 0.1 µM, first compound 0.1 µM) 90% | viability, T/C (second compound 0.1 µM, first compound 0.316 µM) 99.2% | viability, T/C (second compound 0.1 µM, first compound 1 µM) 98.4% | viability, T/C (second compound 0.1 µM, first compound 3.16 µM) 91.6% | viability, T/C (second compound 0.1 µM, first compound 10 µM) 69.9% | viability, T/C (second compound 0.316 µM, first compound 0.0316 µM) 106% | viability, T/C (second compound 0.316 µM, first compound 0.1 µM) 101% | viability, T/C (second compound 0.316 µM, first compound 0.316 µM) 92.5% | viability, T/C (second compound 0.316 µM, first compound 1 µM) 94.2% | viability, T/C (second compound 0.316 µM, first compound 3.16 µM) 87.3% | viability, T/C (second compound 0.316 µM, first compound 10 µM) 71.3% | viability, T/C (second compound 1 µM, first compound 0.0316 µM) 108% | viability, T/C (second compound 1 µM, first compound 0.1 µM) 99.8% | viability, T/C (second compound 1 µM, first compound 0.316 µM) 104% | viability, T/C (second compound 1 µM, first compound 1 µM) 94.7% | viability, T/C (second compound 1 µM, first compound 3.16 µM) 83.4% | viability, T/C (second compound 1 µM, first compound 10 µM) 65.2% | viability, T/C (second compound 3.16 µM, first compound 0.0316 µM) 98.1% | viability, T/C (second compound 3.16 µM, first compound 0.1 µM) 89.2% | viability, T/C (second compound 3.16 µM, first compound 0.316 µM) 94.3% | viability, T/C (second compound 3.16 µM, first compound 1 µM) 96.3% | viability, T/C (second compound 3.16 µM, first compound 3.16 µM) 82.8% | viability, T/C (second compound 3.16 µM, first compound 10 µM) 72.4% | viability, T/C (second compound 10 µM, first compound 0.0316 µM) 59.6% | viability, T/C (second compound 10 µM, first compound 0.1 µM) 39.3% | viability, T/C (second compound 10 µM, first compound 0.316 µM) 47.1% | viability, T/C (second compound 10 µM, first compound 1 µM) 40.1% | viability, T/C (second compound 10 µM, first compound 3.16 µM) 32% | viability, T/C (second compound 10 µM, first compound 10 µM) 20.5%
0.0897 µM: IC50 (second compound 10 µM)
